As a reminder, the IC50 is the concentration at which inhibition is half-maximal.

The target in the experiment is T1, full length SGK1 (Homo sapiens, UniProt O00141).
T1 construct: 125 μM full length SGK1 (Life Technologies Part #PR7358A); purchased Life Technologies PR7358A
T1 sequence (O00141 1-431): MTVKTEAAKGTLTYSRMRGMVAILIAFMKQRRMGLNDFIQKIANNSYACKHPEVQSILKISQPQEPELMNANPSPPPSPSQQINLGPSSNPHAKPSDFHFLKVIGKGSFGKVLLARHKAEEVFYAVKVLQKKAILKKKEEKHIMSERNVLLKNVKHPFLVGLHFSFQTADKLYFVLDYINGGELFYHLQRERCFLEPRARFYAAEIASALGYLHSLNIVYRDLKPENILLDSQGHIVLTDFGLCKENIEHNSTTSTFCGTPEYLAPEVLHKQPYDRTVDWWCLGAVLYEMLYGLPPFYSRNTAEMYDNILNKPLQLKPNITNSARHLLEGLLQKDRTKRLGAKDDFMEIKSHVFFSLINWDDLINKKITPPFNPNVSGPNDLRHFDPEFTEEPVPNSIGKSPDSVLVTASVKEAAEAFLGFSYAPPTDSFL
In words: SGK1 inhibition Assay A (Caliper LabChip electrophoretic separation of fluorescent peptide substrate and phosphorylated product). The experiment is classed as biochemical. To be noted: Assay A; 20 μM ATP, 40 min incubation; read-out: SGK1 IC50.

For the molecule `CC(=O)N1CC=C(c2cc(N3CCC[C@@H](NC(=O)c4sc(Cl)cc4OC4CCNCC4F)C3)c3c(N)ncnn23)C1` (stereo partly drawn) [Example 601, N-((R)-1-(7-(1-acetyl-2,5-dihydro-1H-pyrrol-3-yl)-4-aminopyrrolo[2,1-f][1,2,4]triazin-5-yl)piperidin-3-y1)-5-chloro-3-((3-fluoropiperidin-4-yl)oxy)thiophene-2-carboxamide], the IC50 was determined as 4 nM.
For `CC(=O)N1CC=C(c2cc(N3CCC[C@@H](NC(=O)c4sc(Cl)cc4OC4CCNCC4F)C3)c3c(N)ncnn23)C1` (stereo partly drawn) [Example 602, N-((R)-1-(7-(1-acetyl-2,5-dihydro-1H-pyrrol-3-yl)-4-aminopyrrolo[2,1-f][1,2,4]triazin-5-y1)piperidin-3-y1)-5-chloro-3-((3-fluoropiperidin-4-yl)oxy)thiophone-2-carboxamide], the IC50 stood at 3 nM.
As for `CC(=O)N1CC=C(c2cc(N3CCC[C@@H](NC(=O)c4sc(Cl)cc4OC4CCNCC4F)C3)c3c(N)ncnn23)C1` (stereo partly drawn) [Example 603, N-((R)-1-(7-(1-acetyl-2,5-dihydro-1H-pyrrol-3-y1)-4-aminopyrrolo[2,1-f][1,2,4]triazin-5-yl)piperidin-3-y1)-5-chloro-3-((3-fluoropiperidin-4-yl)oxy)thiophene~2-carboxamide], the IC50 was found to be 7 nM.
Take `CC(=O)N1CC=C(c2cc(N3CCC[C@@H](NC(=O)c4sc(Cl)cc4OC4CCN(C)CC4F)C3)c3c(N)ncnn23)C1` (stereo partly drawn) [Example 604, N-((R)-1-(7-(1-acetyl-2,5-dihydro-1H-pyrrol-3-y1)-4-aminopyrrolo[2,1-f][1,2,4]triazin-5-yl)piperidin-3-y1)-5-chloro-3-((3-fluoro-1-methylpiperidin-4-yl)oxy)thiophene-2-carboxamide]: the IC50 came out at 5 nM.
Consider `CC(=O)N1CC=C(c2cc(N3CCC[C@@H](NC(=O)c4sc(Cl)cc4OC4CCN(C)CC4F)C3)c3c(N)ncnn23)C1` (stereo partly drawn) [Example 605, N-((R)-1-(7-(1-acetyl-2,5-dihydro-1H-pyrrol-3-yl)-4-aminopyrrolo[2,1-f][1,2,4]triazin-5-yl)piperidin-3-y1)-5-chloro-3-((3-fluoro-1-methylpiperidin-4-yl)oxy)thiophene-2-carboxamide], for which the IC50 amounted to 3 nM.
With `CC(=O)N1CC=C(c2cc(N3CCC[C@@H](NC(=O)c4sc(Cl)cc4OC4CC5CC4CN5)C3)c3c(N)ncnn23)C1` (stereo partly drawn) [Example 606, 3-((2-azabicyclo[2.2.1]heptan-5-yl)oxy)-N-((R)-1-(7-(1-acetyl-2,5-dihydro-1H-pyrrol-3-y1)-4-aminopyrrolo[2,1-f][1,2,4]triazin-5~yl)piperidin-3-y1)-5-chlorothiophene-2-carboxamide], the IC50 is 9 nM.
Consider `CC(=O)N1CC=C(c2cc(N3CCC[C@@H](NC(=O)c4sc(Cl)cc4O[C@@H]4C[C@H]5CC[C@@H](C4)N5C)C3)c3c(N)ncnn23)C1` [Example 612, N—((R)-1-(7-(1-acetyl-2,5-dihydro-1H-pyrrol-3-yl)-4-aminopyrrolo[2,1-f][1,2,4]triazin-5-yl)piperidin-3-yl)-5-chloro-3-((8-methyl-8-azabicyclo[3.2.1]octan-3-yl)oxy)thiophene-2-carboxamide], for which the IC50 was 0.6 nM.
In the case of `COC(=O)N1CC=C(c2cc(N3CCC[C@@H](NC(=O)c4sc(Cl)cc4O[C@@H]4C[C@H]5CC[C@@H](C4)N5C)C3)c3c(N)ncnn23)C1` [Example 613, methyl 3-(4-amino-5-((R)-3-(5-chloro-3-(((1R,3s,5S)-8-methyl-8-azabicyclo[3.2.1]octan-3-yl)oxy)thiophene-2-carboxamido)piperidin-1-yl)pyrrolo[2,1-f][1,2,4]triazin-7-yl)-2,5-dihydro-1H-pyrrole-1-carboxylate], the IC50 was 3 nM.
For the molecule `CN1[C@@H]2CC[C@H]1C[C@H](Oc1cc(Cl)sc1C(=O)N[C@@H]1CCCN(c3cc(-c4cncnc4)n4ncnc(N)c34)C1)C2` [Example 614, N—((R)-1-(4-amino-7-(pyrimidin-5-yl)pyrrolo[2,1-f][1,2,4]triazin-5-yl)piperidin-3-yl)-5-chloro-3-((8-methyl-8-azabicyclo[3.2.1]octan-3-yl)oxy)thiophene-2-carboxamide], the IC50 amounted to 3 nM.
Turning to `CC(=O)N1CC=C(c2cc(N3CCC[C@@H](NC(=O)c4sc(Cl)cc4OC4CCN(C5CC5)CC4)C3)c3c(N)ncnn23)C1` [Example 615, (R)—N-(1-(7-(1-acetyl-2,5-dihydro-1H-pyrrol-3-yl)-4-aminopyrrolo[2,1-f][1,2,4]triazin-5-yl)piperidin-3-yl)-5-chloro-3-((1-cyclopropylpiperidin-4-yl)oxy)thiophene-2-carboxamide], the IC50 was determined as 50 nM.
As for `COC(=O)N1CC=C(c2cc(N3CCC[C@@H](NC(=O)c4sc(Cl)cc4OC4CCN(C5CC5)CC4)C3)c3c(N)ncnn23)C1` [Example 616, methyl (R)-3-(4-amino-5-(3-(5-chloro-3-((1-cyclopropylpiperidin-4-yl)oxy)thiophene-2-carboxamido)piperidin-1-yl)pyrrolo[2,1-f][1,2,4]triazin-7-yl)-2,5-dihydro-1H-pyrrole-1-carboxylate], the IC50 is 6 nM.
Consider `Nc1ncnn2c(-c3cncnc3)cc(N3CCC[C@@H](NC(=O)c4sc(Cl)cc4OC4CCN(C5CC5)CC4)C3)c12` [Example 617, (R)-N-(1-(4-amino-7-(pyrimidin-5-y1)pyrrolo[2,1-f][1,2,4]triazin-5-yl)piperidin-3-y1)-5-chloro-3-((1-cyclopropylpiperidin-4-yl)oxy)thiophene-2-carboxamide], for which the IC50 is 24 nM.
`CC(=O)N1CC=C(c2cc(N3CCC[C@@H](NC(=O)c4sc(Cl)cc4OC4CCN(CC(C)(C)O)CC4)C3)c3c(N)ncnn23)C1` [Example 618, (R)—N-(1-(7-(1-acetyl-2,5-dihydro-1H-pyrrol-3-yl)-4-aminopyrrolo[2,1-f][1,2,4]triazin-5-yl)piperidin-3-yl)-5-chloro-3-((1-(2-hydroxy-2-methylpropyl)piperidin-4-yl)oxy)thiophene-2-carboxamide]: the half-maximal inhibitory concentration (IC50) amounted to 9 nM.
On to `COC(=O)N1CC=C(c2cc(N3CCC[C@@H](NC(=O)c4sc(Cl)cc4OC4CCN(CC(C)(C)O)CC4)C3)c3c(N)ncnn23)C1` [Example 619, Methyl (R)-3-(4-amino-5-(3-(5-chloro-3-((1-(2-hydroxy-2-methylpropyl)piperidin-4-yl)oxy)thiophene-2-carboxamido)piperidin-1-yl)pyrrolo[2,1-f][1,2,4]triazin-7-yl)-2,5-dihydro-1H-pyrrole-1-carboxylate], for which the IC50 came to 11 nM.
With `COC(=O)N1CC=C(c2cc(N3CCC[C@@H](NC(=O)c4sc(Cl)cc4OC4CCNC(C)C4)C3)c3c(N)ncnn23)C1` (stereo partly drawn) [Example 624, Methyl 3-(4-amino-5-((3R)-3-(5-chloro-3-((2-methylpiperidin-4-yl)oxy)thiophene-2-carboxamido)piperidin-1-yl)pyrrolo[2,1-f][1,2,4]triazin-7-y1)-2,5-dihydro-1H-pyrrole-1-carboxylate], the IC50 came to 7 nM.
Turning to `CC(C)N1CC2(CC(Oc3cc(Cl)sc3C(=O)N[C@@H]3CCCN(c4cc(-c5ccc(C#N)c(F)c5)n5ncnc(N)c45)C3)C2)C1` [Example 631, (R)—N-(1-(4-amino-7-(4-cyano-3-fluorophenyl)pyrrolo[2,1-f][1,2,4]triazin-5-yl)piperidin-3-yl)-5-chloro-3-((2-isopropyl-2-azaspiro[3.3]heptan-6-yl)oxy)thiophene-2-carboxamide], the IC50 was determined as 3 nM.
In the case of `Nc1ncnn2c(-c3ccnc(C(F)F)c3)cc(N3CCC[C@@H](NC(=O)c4sc(Cl)cc4OC4CNC4)C3)c12` [Example 632, (R)-N-(1-(4-amino-7-(2-(difluoromethyl)pyridin-4-yl)pyrrolo[2,1-f][1,2,4]triazin-5-y1)piperidin-3-y1)-3-(azetidin-3-yloxy)-5-chlorothiophene-2-carboxamide], the IC50 was determined as 8 nM.
Regarding `CC(=O)N1CC=C(c2cc(N3CCC[C@@H](NC(=O)c4sc(Cl)cc4OC4CNC4)C3)c3c(N)ncnn23)C1` [Example 633, (R)-N-(1-(7-(1-acetyl-2,5-dihydro-1H-pyrrol-3-yl)-4-aminopyrrolo[2,1-f][1,2,4]triazin-5-yl)piperidin-3-yl)-3-(azetidin-3-yloxy)-5-chlorothiophene-2-carboxamide], the IC50 turned out to be 6 nM.
For the molecule `COC(=O)N1CC=C(c2cc(N3CCC[C@@H](NC(=O)c4sc(Cl)cc4OCC4CNC4)C3)c3c(N)ncnn23)C1` [Example 634, Methyl (R)-3-(4-amino-5-(3-(3-(azetidin-3~ylmethoxy)-5-chlorothiophene-2-carboxamido)piperidin-1-y1)pyrrolo[2,1-f][1,2,4]triazin-7-y1)-2,5-dihydro-\H-pyrrole-1-carboxylate], the IC50 stood at 18 nM.
With `N#Cc1ccc(-c2cc(N3CCC[C@@H](NC(=O)c4sc(Cl)cc4OCC4CNC4)C3)c3c(N)ncnn23)cn1` [Example 635], the IC50 amounted to 7 nM.
As for `CC(=O)N1CC=C(c2cc(N3CCC[C@@H](NC(=O)c4sc(Cl)cc4OC4CCNC4)C3)c3c(N)ncnn23)C1` (stereo partly drawn) [Example 636, N-((R)-1-(7-(1-acetyl-2,5-dihydro-1H-pyrrol-3-yl)-4-aminopyrrolo[2,1-f][1,2,4]triazin-5-yl)piperidin-3-y1)-5-chloro-3-(pyrrolidin-3-yloxy)thiophene-2-carboxamide], the figure is 5 nM; as for `N#Cc1ccc(-c2cc(N3CCC[C@@H](NC(=O)c4sc(Cl)cc4OC4CCNC4)C3)c3c(N)ncnn23)cn1` (stereo partly drawn) [Example 637, N-((R)-1-(4-amino-7-(6-cyanopyridin-3-yl)pyrrolo[2,1-f][1,2,4]triazin-5-yl)piperidin-3-y1)-5-chloro-3-(pyrrolidin-3-yloxy)thiophene-2-carboxamide], 12 nM.

The values are drawn from patent US20260250290A1 (BRISTOL-MYERS SQUIBB COMPANY, priority 2023, published 2026).
